In ChEMBL document CHEMBL1136321, “Regioselective synthesis and cytotoxicities of camptothecin derivatives modified at the 7-, 10- and 20-positions” (Bioorg Med Chem Lett, 2003):

How the values were obtained:
Type in all cases: functional, cell-based
A549 = experiment: In vitro cytotoxicity against A549 (human lung cancer)
A2780 = experiment: In vitro cytotoxicity against A2780 (human ovarian cancer)
Bel-7402 = experiment: In vitro cytotoxicity against Bel7402 (human liver cancer); conditions: Bel-7402, Liver
HCT-8 = experiment: In vitro cytotoxicity against HCT-8 (human colon cancer)
KB VCR R = experiment: In vitro cytotoxicity against KB/VCR (Vincristine-resistant cancer cell line); conditions: Homo sapiens
KB = experiment: In vitro cytotoxicity against KB (human epidermoid carcinoma of the nasopharynx)

| SMILES | IC50 (A549) [nM] | IC50 (A2780) [nM] | IC50 (Bel-7402) [nM] | IC50 (HCT-8) [nM] | IC50 (KB VCR R) [nM] | IC50 (KB) [nM] |
| --- | --- | --- | --- | --- | --- | --- |
| CC[C@@]1(O)C(=O)OCc2c1cc1n(c2=O)Cc2c-1nc1ccccc1c2COC(=O)COc1ccc(F)cc1 | 57 | 8 | 9 | 8 | 49 | 7 |
| CC[C@@]1(OC(=O)COc2ccc(F)cc2)C(=O)OCc2c1cc1n(c2=O)Cc2c-1nc1ccccc1c2COC(=O)COc1ccc(F)cc1 | 293 | 58 | 26 | 52 | > 1000 | 72 |
| CC[C@@]1(OC(=O)COc2ccc(C#N)c(F)c2)C(=O)OCc2c1cc1n(c2=O)Cc2c-1nc1ccccc1c2COC(=O)COc1ccc(C#N)c(F)c1 | 55 | 10 | 33 | 48 | 53 | 9 |
| CC[C@@]1(OC(=O)COc2ccc(OC)cc2)C(=O)OCc2c1cc1n(c2=O)Cc2c-1nc1ccccc1c2COC(=O)COc1ccc(OC)cc1 | 348 | 71 | 84 | 76 | 267 | 310 |
| CC[C@@]1(OC(=O)COc2ccc(F)cc2)C(=O)OCc2c1cc1n(c2=O)Cc2cc3cc(OC(=O)COc4ccc(F)cc4)ccc3nc2-1 | 401 | 15 | 95 | 82 | 295 | 55 |
| CC[C@@]1(OC(=O)COc2ccc(OC)cc2)C(=O)OCc2c1cc1n(c2=O)Cc2cc3cc(OC(=O)COc4ccc(OC)cc4)ccc3nc2-1 | 718 | 88 | 200 | 97 | 460 | 69 |
| CC[C@@]1(O)C(=O)OCc2c1cc1n(c2=O)Cc2c-1nc1ccccc1c2COC(=O)Cc1cc(OC)c(OC)c(OC)c1 | 160 | 61 | 72 | 55 | 340 | 36 |
| CC[C@@]1(O)C(=O)OCc2c1cc1n(c2=O)Cc2cc3cc(OC(=O)COc4ccc(F)cc4)ccc3nc2-1 | 80 | 54 | 95 | 62 | 244 | 53 |
| CC[C@@]1(OC(=O)Cc2cc(OC)c(OC)c(OC)c2)C(=O)OCc2c1cc1n(c2=O)Cc2c-1nc1ccccc1c2COC(=O)Cc1cc(OC)c(OC)c(OC)c1 | 98 | 68 | 82 | 76 | 947 | 78 |
| CC[C@@]1(O)C(=O)OCc2c1cc1n(c2=O)Cc2c-1nc1ccccc1c2COC(=O)COc1ccc(OC)cc1 | 69 | 9 | 8 | 9 | 51 | 8 |
| CC[C@@]1(O)C(=O)OCc2c1cc1n(c2=O)Cc2cc3cc(OC(=O)COc4ccc(OC)cc4)ccc3nc2-1 | 190 | 65 | 74 | 61 | 275 | 47 |
| CC[C@@]1(O)C(=O)OCc2c1cc1n(c2=O)Cc2c-1nc1ccccc1c2COC(=O)COc1ccc(C#N)c(F)c1 | 8 | < 1 | < 1 | < 1 | 437 | < 1 |
| CC[C@@]1(O)C(=O)OCc2c1cc1n(c2=O)Cc2cc3ccccc3nc2-1 [CAMPTOTHECIN] | 8 | 7 | 7 | 7 | 9 | 9 |
| CC[C@@]1(O)C(=O)OCc2c1cc1n(c2=O)Cc2cc3c(CN(C)C)c(O)ccc3nc2-1 [TOPOTECAN] | 87 | 58 | 78 | 74 | 339 |  |
